The values that follow come from patent US5674977A, “Branched synthetic peptide conjugate” (The Ontario Cancer Institute, priority 1994, dated 1997).

Numbered stars: 1 amine (or outer) side, 2 acyl side, 3 side chain; on linkers, the order of the positions; unused ones are H or OH. Square brackets hold non-standard residues; d marks the D form. Peptide text beside a SMILES is read from it. X1 = C[C@@H](O)[C@@H](C(=O)[*:2])N(c1c2ccccc2nc2ccccc12)[*:1]

The series has as its system CHO cells. The series can be described thus: MTT cell viability (cytotoxicity) assay. It is filed as cell-based, Chinese hamster. As to conditions: concentrations as high as 100 μM, 2 hour incubation period. The text has this: The cytotoxicity of peptide 1 and octopeptides 2-5 was established in Chinese hamster ovary (CHO) cells in order to select a minimal octopeptide concentration suitable for detecting the constructs by flow cytometry and fluorescence microscopy on live cells. The cytotoxicity of each construct was established using the MTT cell viability assay (FIG. 1; Mosmann, 1983). […] Linear polymers having a mass of less than 13 kDa were shown not to be cytotoxic to HeLa cells (Arnold et al., 1979). […] At a concentration of 1 μM, none of the octopeptides were cytotoxic to CHO cells (FIG. 1). […] The penetration and localization of acridine and rhodamine chromophores in viable CHO cells were observed during fluorescence microscopy and flow cytometry experiments by exposing cells to concentrations of octopeptides ranging from 0.1 to 1 μM. […]
The quantitative MTT colorimetric assay developed by Mosmann (1983) was used to determine the toxicity of peptide constructs of the invention toward CHO cells. […] The blue MTT formazan product generated by living cells was quantified by measuring the optical density of the cellular extract at 620 nm. […] Absorbance values were translated into measurements of cell viability and reflect the average of experiments performed in triplicate.

For the compound `CC(C)[C@H](NC(=O)[C@H](CCCCN)NC(=O)[C@H](CCCNC(=N)N)NC(=O)[C@H](CCCCN)NC(=O)[C@H](CCCCN)NC(=O)[C@H](CCCCN)NC(=O)[C@@H]1CCCN1C(=O)[C@@H]1CCCN1C(=O)[C@@H](Nc1c2ccccc2nc2ccccc12)[C@@H](C)O)C(=O)N[C@@H](CCC(=O)O)C(=O)N[C@@H](CC(=O)O)C(=O)N1CCC[C@H]1C(=O)N[C@@H](CCCCN)C(=O)N[C@@H](CCCCN)C(=O)N[C@@H](CCCCN)C(=O)N[C@@H](CCCCN)C(=O)N[C@@H](CCCCN)C(=O)O` [peptide 1, Acr-NLS-CTS] (H-[X1]PPKKKRKVEDPKKKKK-OH), the “toxicity to CHO cells” value is reported as “not toxic”.
